In patent publication US20190247376A1, “NICOTINIC ACETYLCHOLINE RECEPTOR AGONIST ATTENUATES ILC2-DEPENDENT AIRWAY HYPERREACTIVITY” (University of Southern California, priority 2016, published 2019):

Assays:
[1] = tested on: BALB/cByJ and α7nAChR−/− mice; assay: IL-33-induced AHR in WT and α7nAChR-deficient mice; format: in vivo, mouse; conditions: rm-IL-33, agonist 125 μg days 1-3
Description: FIGS. 4A-4E: α7nAChR expression is critical for GTS-21 action on ILC2s in vivo. BALB/cByJ and α7nAChR^−/− mice were intranasally challenged with rm-IL-33 or PBS, and also given α7nAChR agonist (125 μg) or PBS on days 1-3. Measurement of lung function and analysis of BAL followed on day 4. (FIG. 4A) Lung resistance. (FIG. 4B) Total number of eosinophils in BALF. (FIG. 4C) Rag^−/− GC^−/− mice were received ILC2s from either WT or α7nAChR^−/− mice. After the adoptive transfer, mice were intranasally challenged with rm-IL-33 or PBS; they also received α7nAChR agonist (125 μg) or PBS on days 1-3. Measurement of lung function and analysis of BAL followed on day 4, according to scheme 4C. (FIG. 4D) Lung resistance. (FIG. 4E) Total number of eosinophils in BALF. Data are representative of at least three independent experiments and are presented as means±SEM (n=4; Student's test ***, p<0.001, WT IL-33+α7nAChR agonist vs. α7nAChR^−/− IL-33+α7nAChR agonist).
To assess whether the previously observed effects of GTS-21 are due to its actions on the α7nAChR, Applicants challenged WT and α7nAChR-deficient mice with or without rm-IL-33, and with or without α7nAChR agonist, for three consecutive days (FIGS. 4A-4B). As expected, in the WT mice, the agonist repressed IL-33-induced AHR and eosinophilic infiltration.
Mice were intranasally (i.n.) administered carrier-free recombinant mouse IL-33 (BioLegend, San Diego Calif., 0.5 µg per mouse in 50 µL) with or without […] of α7nAChR agonist (kindly provided by Lin Chen) on three consecutive days. Mice were intranasally (i.n.) administered carrier-free recombinant mouse IL-25 (BioLegend, San Diego Calif., 5 µg per mouse in 50 µL) with or without […] of α7nAChR agonist on three consecutive days. For Alternaria alternata experiments, mice were i.n. administered Alternaria alternata (Greer Labs, Lenoir, N.C., 100 μg per mouse in 50 μL) with or without 125 µg α7nAChR agonist for four consecutive days. One day after the last challenge, mice were anesthetized using i.p. injection of ketamine (10 mg mL^−1) and xylazine (1 mg mL^−1). Measurements of airway resistance and dynamic compliance were conducted with the Fine Pointe RC System (Buxco Research Systems, Wilmington, N.C.), in which mice were mechanically ventilated using a modified version as previously described^36,67. Mice were sequentially challenged with aerosolized PBS (baseline), followed by increasing doses of methacholine. Maximum lung resistance (RL) and minimum compliance (Cdyn) values were recorded during a three-minute period after each methacholine challenge.

[2] = tested on: Rag2 GC double knockout mice with adoptively transferred human ILC2s; assay: Human ILC2-mediated AHR in humanized ILC2 mice; format: in vivo, mouse; conditions: i.n. IL-33, agonist three consecutive days
Description: FIGS. 7A-7E: α7nAChR agonist prevents human ILC2s mediated AHR and allergic. (FIG. 7A) Human ILC2s were purified from PBMCs via FACS and cultured (10^4 cells per mL) in the presence of recombinant human IL-33 (20 ng mL^−1), IL-2 (10 ng mL^−1), and IL-7 (20 ng mL^−1), with or without α7nAChR agonist for 24h. In the right panel, data are presented as means of four individual donors. […]
Finally, to confirm the efficacy of α7nAChR agonist treatment in human ILC2-mediated AHR, sorted human ILC2s (hILC2s) were cultured in the presence of rh-IL-2 (20 ng mL^−1) and rh-IL-7 (20 ng mL^−1) for 48 hours. […] These humanized mice were given i.n. rh-IL33 (1 μg per mice) with or without α7nAChR agonists (125 µg mL^−1) for three consecutive days, and then AHR was evaluated (FIG. 7B). […]
For human peripheral ILC2s, peripheral blood mononuclear cells (PBMCs) were first isolated from human fresh blood by diluting the blood 1:1 in PBS, adding to SepMate™-50 separation tubes (STEMCELL Technologies Inc, Vancouver, Canada) prefilled with 15-mL Lymphoprep™ each (Axis-Shield, Oslo, Norway), and centrifuging at 1200 g for 15 minutes. […] On day 4, lung function was measured and BAL was performed and analyzed.

[3] = biological target: α4β2 subtype of nAChR (Homo sapiens, UniProt P17787+P43681); conditions: cited from earlier work
α4β2 subtype of nAChR, sequence (P43681 29-627 limits assumed): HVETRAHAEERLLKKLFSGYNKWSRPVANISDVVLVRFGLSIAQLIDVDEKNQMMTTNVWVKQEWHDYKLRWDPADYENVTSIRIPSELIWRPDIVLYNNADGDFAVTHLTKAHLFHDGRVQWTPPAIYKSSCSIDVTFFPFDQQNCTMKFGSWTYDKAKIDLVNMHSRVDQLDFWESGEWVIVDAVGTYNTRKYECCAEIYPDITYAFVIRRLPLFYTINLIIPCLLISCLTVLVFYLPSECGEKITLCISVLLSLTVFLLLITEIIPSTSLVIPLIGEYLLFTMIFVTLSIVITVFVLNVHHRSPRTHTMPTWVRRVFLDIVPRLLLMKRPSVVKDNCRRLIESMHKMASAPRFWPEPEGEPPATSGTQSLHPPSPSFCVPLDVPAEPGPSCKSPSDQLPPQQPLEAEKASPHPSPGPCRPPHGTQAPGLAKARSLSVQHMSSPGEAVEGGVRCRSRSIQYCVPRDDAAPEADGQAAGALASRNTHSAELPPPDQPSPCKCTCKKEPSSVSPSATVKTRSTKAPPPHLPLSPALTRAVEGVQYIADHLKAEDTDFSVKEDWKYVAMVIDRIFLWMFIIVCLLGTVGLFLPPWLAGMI
α4β2 subtype of nAChR, sequence (P17787 26-502): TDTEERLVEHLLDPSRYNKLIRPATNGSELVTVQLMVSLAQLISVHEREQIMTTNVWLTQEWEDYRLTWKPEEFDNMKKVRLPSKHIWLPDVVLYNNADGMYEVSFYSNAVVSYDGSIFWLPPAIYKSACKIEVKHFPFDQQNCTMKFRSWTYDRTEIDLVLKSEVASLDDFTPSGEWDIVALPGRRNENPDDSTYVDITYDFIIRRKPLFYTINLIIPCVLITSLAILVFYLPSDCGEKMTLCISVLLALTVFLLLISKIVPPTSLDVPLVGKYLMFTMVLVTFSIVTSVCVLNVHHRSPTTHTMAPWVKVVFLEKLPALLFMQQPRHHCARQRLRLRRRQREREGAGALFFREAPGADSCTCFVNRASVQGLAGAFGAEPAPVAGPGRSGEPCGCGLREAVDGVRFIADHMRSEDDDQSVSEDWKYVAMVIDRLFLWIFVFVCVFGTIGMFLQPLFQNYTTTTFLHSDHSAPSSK

COc1ccc(/C=C2\CCCN=C2c2cccnc2)c(OC)c1 [GTS-21, 3-[(3E)-3-[(2,4-dimethoxyphenyl)methylidene]-5,6-dihydro-4H-pyridin-2-yl]pyridine]
IL-33-induced AHR ([1]; WT mice): repressed | eosinophilic infiltration ([1]; WT mice): repressed | IL-33-induced AHR ([1]; α7nAChR-deficient mice): affected neither AHR nor eosinophilia | eosinophilia ([1]; α7nAChR-deficient mice): affected neither AHR nor eosinophilia | ILC2-mediated AHR (lung resistance) [2]: dampened | allergic inflammation (eosinophils in BALF, lung ILC2s) [2]: dampened | binding to the α4β2 subtype [3]: binds
